According to the supplement of paper PMC5908809:

Assays:
IMC-1 (IL-2 20 ng/mL) [1] = experiment: percent inhibition of viability; higher = more inhibition; details: 72 h
[2] = tested on: normal primary NK cells, pool 1 (3 donors), resting (IL-2 0 ng/mL); experiment: as above; details: 72 h
NKL (IL-2 2.5 ng/mL) [3] = experiment: as above; details: 72 h
KAI3 (IL-2 2.5 ng/mL) [4] = experiment: as above; details: 72 h
[5] = tested on: normal primary NK cells, pool 3 (3 donors) (IL-2 2.5 ng/mL); experiment: as above; details: 72 h
[6] = tested on: normal primary NK cells, pool 2 (3 donors) (IL-2 2.5 ng/mL); experiment: as above; details: 72 h
[7] = tested on: normal primary NK cells, pool 1 (3 donors) (IL-2 2.5 ng/mL); experiment: as above; details: 72 h
YT (IL-2 2.5 ng/mL) [8] = experiment: as above; details: 72 h
DERL-7 (IL-2 2.5 ng/mL) [9] = experiment: as above; details: 72 h
KHYG-1 (IL-2 2.5 ng/mL) [10] = experiment: as above; details: 72 h
SNK-6 (IL-2 2.5 ng/mL) [11] = experiment: as above; details: 72 h
NK-YS (IL-2 2.5 ng/mL) [12] = experiment: as above; details: 72 h
NK-92 (IL-2 2.5 ng/mL) [13] = experiment: as above; details: 72 h
[14] = tested on: normal NK cells expanded with K562-aAPC; experiment: drug sensitivity score (DSS) (DSS units); higher = more sensitive; extreme values may be limits of the assay; details: 72 h; IL-2 2.5 ng/mL
Method: (§1)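 Drug sensitivity and resistance testing on K562-aAPC-expanded normal NK cells: 5 concentrations (10-fold steps over a 10,000-fold range), 72 h at 37 °C, viability by CellTiter-Glo normalised to DMSO and benzethonium chloride controls; DSS from the fitted curve.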

[15] = tested on: normal NK cells expanded with K562-aAPC; experiment: percent inhibition of viability; higher = more inhibition; details: 72 h, IL-2 2.5 ng/mL
Method: as §1

IMC-1 (IL-2 20 ng/mL) [16] = experiment: drug sensitivity score (DSS) (DSS units); higher = more sensitive; extreme values may be limits of the assay; details: 72 h
[17] = tested on: normal primary NK cells, pool 1 (3 donors), resting (IL-2 0 ng/mL); experiment: as above; details: 72 h
NKL (IL-2 2.5 ng/mL) [18] = experiment: as above; details: 72 h
KAI3 (IL-2 2.5 ng/mL) [19] = experiment: as above; details: 72 h
[20] = tested on: normal primary NK cells, pool 3 (3 donors) (IL-2 2.5 ng/mL); experiment: as above; details: 72 h
[21] = tested on: normal primary NK cells, pool 2 (3 donors) (IL-2 2.5 ng/mL); experiment: as above; details: 72 h
[22] = tested on: normal primary NK cells, pool 1 (3 donors) (IL-2 2.5 ng/mL); experiment: as above; details: 72 h
YT (IL-2 2.5 ng/mL) [23] = experiment: as above; details: 72 h
DERL-7 (IL-2 2.5 ng/mL) [24] = experiment: as above; details: 72 h
KHYG-1 (IL-2 2.5 ng/mL) [25] = experiment: as above; details: 72 h
SNK-6 (IL-2 2.5 ng/mL) [26] = experiment: as above; details: 72 h
NK-YS (IL-2 2.5 ng/mL) [27] = experiment: as above; details: 72 h
NK-92 (IL-2 2.5 ng/mL) [28] = experiment: as above; details: 72 h

CC1(C)NC(=O)N(c2ccc([N+](=O)[O-])c(C(F)(F)F)c2)C1=O [Nilutamide] (max concentration tested 10000 nM)
percent inhibition of viability [%]
Details	1 nM	10 nM	100 nM	1000 nM	10000 nM
DERL-7 (IL-2 2.5 ng/mL) [9]	-0.2	-1.34	3.47	-0.03	1.75
IMC-1 (IL-2 20 ng/mL) [1]	0	-0.12	2.93	3	40.4
KAI3 (IL-2 2.5 ng/mL) [4]	2	1.75	11.7	3.52	28.1
KHYG-1 (IL-2 2.5 ng/mL) [10]	24.8	-7.14	-0.73	-1.75	15.3
NK-92 (IL-2 2.5 ng/mL) [13]	-0.95	-6.88	4.02	-1.88	24.8
NK-YS (IL-2 2.5 ng/mL) [12]	-5.09	-3.33	-3.78	3.59	17.6
NKL (IL-2 2.5 ng/mL) [3]	10.6	5.58	15.2	17.2	31.6
SNK-6 (IL-2 2.5 ng/mL) [11]	33.2	-24.8	-17.7	-22.5	-4.35
YT (IL-2 2.5 ng/mL) [8]	0.36	-6.16	5.94	-0.37	25
[2]	-1.3	10.6	10.3	9.07	18.9
[5]	1.57	6.88	3.88	-4.89	-2.84
[6]	-2.69	6.11	0.2	1.25	3.42
[7]	-9.72	5.06	-2.38	6.35	1.66
[15]	-10	-7.03	-6.98	-0.84	12.4

Details	drug sensitivity score
DERL-7 (IL-2 2.5 ng/mL) [24]	0
IMC-1 (IL-2 20 ng/mL) [16]	2.47
KAI3 (IL-2 2.5 ng/mL) [19]	1.74
KHYG-1 (IL-2 2.5 ng/mL) [25]	0.08
NK-92 (IL-2 2.5 ng/mL) [28]	0.81
NK-YS (IL-2 2.5 ng/mL) [27]	0.84
NKL (IL-2 2.5 ng/mL) [18]	4.46
SNK-6 (IL-2 2.5 ng/mL) [26]	0
YT (IL-2 2.5 ng/mL) [23]	0.93
[14]	0.04
[17]	1.43
[20]	0
[21]	0
[22]	0

CN[C@@H](C)C(=O)N[C@H](C(=O)N1CCC[C@H]1c1nc(C(=O)c2ccc(F)cc2)cs1)C1CCCCC1 [LCL161] (max concentration tested 25000 nM)
percent inhibition of viability [%]
Details	2.5 nM	25 nM	250 nM	2500 nM	25000 nM
DERL-7 (IL-2 2.5 ng/mL) [9]	3.1	13	11.3	36.6	64.2
IMC-1 (IL-2 20 ng/mL) [1]	-0.09	4.35	9.97	0.82	31.3
KAI3 (IL-2 2.5 ng/mL) [4]	-3.88	-6.89	-0.05	26.9	67.2
KHYG-1 (IL-2 2.5 ng/mL) [10]	-3.69	-2.27	43.7	87.9	86.8
NK-92 (IL-2 2.5 ng/mL) [13]	-9.41	4.44	14.3	35.9	87.5
NK-YS (IL-2 2.5 ng/mL) [12]	-6.78	-9.82	-8.28	-8.9	20.8
NKL (IL-2 2.5 ng/mL) [3]	-0.58	12.2	1.43	5.86	46.8
SNK-6 (IL-2 2.5 ng/mL) [11]	9.58	4.06	-3.23	-1.7	42.3
YT (IL-2 2.5 ng/mL) [8]	4.24	0.05	5.12	15.8	49.9
[2]	-36.7	-17.7	-2.19	43.8	88.3
[5]	-5.71	1.98	19.5	51.1	75.2
[6]	-10.3	4.59	24.6	55.9	80.5
[7]	-2.53	-6.03	25.8	58	91
[15]	3.9	9.45	17.1	42	71.6

Details	drug sensitivity score
DERL-7 (IL-2 2.5 ng/mL) [24]	8.62
IMC-1 (IL-2 20 ng/mL) [16]	1.5
KAI3 (IL-2 2.5 ng/mL) [19]	7.35
KHYG-1 (IL-2 2.5 ng/mL) [25]	21.5
NK-92 (IL-2 2.5 ng/mL) [28]	9.07
NK-YS (IL-2 2.5 ng/mL) [27]	0.39
NKL (IL-2 2.5 ng/mL) [18]	3.42
SNK-6 (IL-2 2.5 ng/mL) [26]	1.99
YT (IL-2 2.5 ng/mL) [23]	4.58
[14]	10.4
[17]	10.4
[20]	12
[21]	13.6
[22]	14
